Assays:
AsPC-1 (G12D) = assay: In vitro cell proliferation inhibition test (CellTiter-Glo), AsPC-1; assay type: cell-based; conditions: Homo sapiens, ASPC1, AsPC-1 pancreas cell line, KRAS (p.G12D), 72 h co-incubation
From the text: (§1) Test Example 1: In Vitro Cell Proliferation Inhibition Test
(§2) Due to the diversity of RAS mutations and in order to evaluate the activity of compounds in different RAS mutation cell lines, we selected KRAS^WT, KRAS^G12C, KRAS^G12D, KRAS^G12V and BRAF mutation cell lines (see the table below) for in vitro activity evaluation and screening of compounds.
(§3) Protocol: CellTiter-Glo® Cell Luminescent Viability Assay (Promega)
(§4) According to the doubling time of different cell lines, different numbers of cells (1000-5000 cells/well) were seeded in 96-well plates containing 180 μl of corresponding culture medium and cultured overnight in a cell culture incubator at 37° C. with 5% CO2. On the second day, the test compound was pre-diluted 3-fold with culture medium, with the highest concentration being 100 μM, for a total of 10 concentration gradients; then 20 μl of culture medium containing different concentrations of the compound was added to the cells in the 96-well plate to ensure that the final concentration of the compound was up to 10 μM, with 10 concentration gradients of 3-fold dilution. After the cells and compounds were co-incubated for 72 h, the 96-well plate was removed from the incubator and equilibrated at room temperature for 30 min. Then, 25 μl of CellTiter-Glo® Reagent was added to each well and mixed thoroughly. The mixture was incubated at room temperature for 10 min, and then 100 μl of the sample was transferred to a white 96-well plate (OptiPlate™-96, PerkinElmer). The […] signal value was read using a multi-function microplate reader (SpectraMax® i3x, Molecular devices). The signal values were then standardized, and the curve was fitted using a four-parameter regression equation to calculate the half maximal inhibitory concentration (IC50) of the compound on the cell line.

SW480 (G12V) = assay: In vitro cell proliferation inhibition test (CellTiter-Glo), SW480; assay type: cell-based; conditions: Homo sapiens, SW480 colon cell line, KRAS (p.G12V), 72 h co-incubation
From the text: as §1, §2, §3, §4

SMILES | IC50 (AsPC-1 (G12D)) | IC50 (SW480 (G12V))
CCn1c(-c2cc(-c3cccc(CN4CCOCC4)c3)cnc2[C@H](C)OC)c2c3cc(ccc31)-c1csc(n1)C[C@H](NC(=O)[C@H]1C[C@@H]1C)C(=O)N1CCC[C@H](N1)C(=O)OCC(C)(C)C2 (atropisomer, axis not shown) [Compound 9, (1S,2S)-N-((6^3S,4S,Z)-1^1-ethyl-1^2-(2-((S)-1-methoxyethyl)-5-(3-(morpholinomethyl)phenyl)pyridin-3-yl)-10,10-dimethyl-5,7-dioxo-6^1,6^2,6^3,6^4,6^5,6^6-hexahydro-1^1H-8-oxa-2(4,2)-thiazola-1(5,3)-indola-6(1,3)-pyridazinacycloundecaphane-4-yl)-2-methylcyclopropane-1-carboxamide] | 3.5 nM | 18 nM
CCn1c(-c2cc(-c3ccc4c(c3)CN(C)CC4)cnc2[C@H](C)OC)c2c3cc(ccc31)-c1csc(n1)C[C@H](NC(=O)[C@H]1C[C@@H]1C)C(=O)N1CCC[C@H](N1)C(=O)OCC(C)(C)C2 (atropisomer, axis not shown) [Compound 10, (1S,2S)-N-((6^3S,4S,Z)-1^1-ethyl-1^2-(2-((S)-1-methoxyethyl)-5-(2-methyl-1,2,3,4-tetrahydroisoquinolin-7-yl)pyridin-3-yl)-10,10-dimethyl-5,7-dioxo-6^1,6^2,6^3,6^4,6^5,6^6-hexahydro-1^1H-8-oxa-2(4,2)-thiazola-1(5,3)-indola-6(1,3)-pyridazinacycloundecaphane-4-yl)-2-methylcyclopropane-1-carboxamide] | 18 nM | 0.5 nM
CCn1c(-c2cc(-c3cc(CN4CCOCC4)ccn3)cnc2[C@H](C)OC)c2c3cc(ccc31)-c1csc(n1)C[C@H](NC(=O)[C@H]1C[C@@H]1C)C(=O)N1CCC[C@H](N1)C(=O)OCC(C)(C)C2 (atropisomer, axis not shown) [Compound 11, (1S,2S)-N-((6^3S,4S,Z)-1^1-ethyl-1^2-(6′-((S)-1-methoxyethyl)-4-(morpholinomethyl)-[2,3′-bipyridin]-5′-yl)-10,10-dimethyl-5,7-dioxo-6^1,6^2,6^3,6^4,6^5,6^6-hexahydro-1^1H-8-oxa-2(4,2)-thiazola-1(5,3)-indola-6(1,3)-pyridazinacycloundecaphane-4-yl)-2-methylcyclopropane-1-carboxamide] | 2.1 nM | 3.2 nM
CCn1c(-c2cc(-c3ccc(CN4CCOCC4)cn3)cnc2[C@H](C)OC)c2c3cc(ccc31)-c1csc(n1)C[C@H](NC(=O)[C@H]1C[C@@H]1C)C(=O)N1CCC[C@H](N1)C(=O)OCC(C)(C)C2 (atropisomer, axis not shown) [Compound 12, (1S,2S)-N-((6^3S,4S,Z)-1^1-ethyl-1^2-(6′-((S)-1-methoxyethyl)-5-(morpholinomethyl)-[2,3′-bipyridin]-5′-yl)-10,10-dimethyl-5,7-dioxo-6^1,6^2,6^3,6^4,6^5,6^6-hexahydro-1^1H-8-oxa-2(4,2)-thiazola-1(5,3)-indola-6(1,3)-pyridazinacycloundecaphane-4-yl)-2-methylcyclopropane-1-carboxamide] | 16 nM | 6.6 nM
CCn1c(-c2cc(-c3cnn(CCN4CCOCC4)c3)cnc2[C@H](C)OC)c2c3cc(ccc31)-c1csc(n1)C[C@H](NC(=O)[C@H]1C[C@@H]1C)C(=O)N1CCC[C@H](N1)C(=O)OCC(C)(C)C2 (atropisomer, axis not shown) [Compound 15, (1S,2S)-N-((6^3S,4S,Z)-1^1-ethyl-1^2-(2-((S)-1-methoxyethyl)-5-(1-(2-morpholinoethyl)-1H-pyrazol-4-yl)pyridin-3-yl)-10,10-dimethyl-5,7-dioxo-6^1,6^2,6^3,6^4,6^5,6^6-hexahydro-1^1H-8-oxa-2(4,2)-thiazola-1(5,3)-indola-6(1,3)-pyridazinacycloundecaphane-4-yl)-2-methylcyclopropane-1-carboxamide] | 3 nM | 6 nM
CCn1c(-c2cc(-c3cnn([C@@H]4CCN(C)C4)c3)cnc2[C@H](C)OC)c2c3cc(ccc31)-c1csc(n1)C[C@H](NC(=O)[C@H]1C[C@@H]1C)C(=O)N1CCC[C@H](N1)C(=O)OCC(C)(C)C2 (atropisomer, axis not shown) [Compound 16, (1S,2S)-N-((6^3S,4S,Z)-1^1-ethyl-1^2-(2-((S)-1-methoxyethyl)-5-(1-((R)-1-methylpyrrolidin-3-yl)-1H-pyrazol-4-yl)pyridin-3-yl)-10,10-dimethyl-5,7-dioxo-6^1,6^2,6^3,6^4,6^5,6^6-hexahydro-1^1H-8-oxa-2(4,2)-thiazola-1(5,3)-indola-6(1,3)-pyridazinacycloundecaphane-4-yl)-2-methylcyclopropane-1-carboxamide] | 1.6 nM | 7.9 nM
CCn1c(-c2cc(-c3cnn(C4CN(C)C4)c3)cnc2[C@H](C)OC)c2c3cc(ccc31)-c1csc(n1)C[C@H](NC(=O)[C@H]1[C@H](C)[C@@H]1C)C(=O)N1CCC[C@H](N1)C(=O)OCC(C)(C)C2 (atropisomer, axis not shown) [Compound 17, (1r,2R,3S)-N-((6^3S,4S,Z)-1^1-ethyl-1^2-(2-((S)-1-methoxyethyl)-5-(1-(1-methylazetidin-3-yl)-1H-pyrazol-4-yl)pyridin-3-yl)-10,10-dimethyl-5,7-dioxo-6^1,6^2,6^3,6^4,6^5,6^6-hexahydro-1^1H-8-oxa-2(4,2)-thiazola-1(5,3)-indola-6(1,3)-pyridazinacycloundecaphane-4-yl)-2,3-dimethylcyclopropane-1-carboxamide] | 0.31 nM | 2.5 nM
CCn1c(-c2cc(-c3cnn(C4CCN(C)CC4)c3)cnc2[C@H](C)OC)c2c3cc(ccc31)-c1csc(n1)C[C@H](NC(=O)[C@H]1[C@H](C)[C@@H]1C)C(=O)N1CCC[C@H](N1)C(=O)OCC(C)(C)C2 (atropisomer, axis not shown) [Compound 18, (1r,2R,3S)-N-((6^3S,4S,Z)-1^1-ethyl-1^2-(2-((S)-1-methoxyethyl)-5-(1-(1-methylpiperidin-4-yl)-1H-pyrazol-4-yl)pyridin-3-yl)-10,10-dimethyl-5,7-dioxo-6^1,6^2,6^3,6^4,6^5,6^6-hexahydro-1^1H-8-oxa-2(4,2)-thiazola-1(5,3)-indola-6(1,3)-pyridazinacycloundecaphane-4-yl)-2,3-dimethylcyclopropane-1-carboxamide] | 0.45 nM | 1.4 nM
CCn1c(-c2cc(-c3cnn(CCN4CCN(C)CC4)c3)cnc2[C@H](C)OC)c2c3cc(ccc31)-c1csc(n1)C[C@H](NC(=O)[C@H]1[C@H](C)[C@@H]1C)C(=O)N1CCC[C@H](N1)C(=O)OCC(C)(C)C2 (atropisomer, axis not shown) [Compound 19, (1r,2R,3S)-N-((6^3S,4S,Z)-1^1-ethyl-1^2-(2-((S)-1-methoxyethyl)-5-(1-(2-(4-methylpiperazin-1-yl)ethyl)-1H-pyrazol-4-yl)pyridin-3-yl)-10,10-dimethyl-5,7-dioxo-6^1,6^2,6^3,6^4,6^5,6^6-hexahydro-1^1H-8-oxa-2(4,2)-thiazola-1(5,3)-indola-6(1,3)-pyridazinacycloundecaphane-4-yl)-2,3-dimethylcyclopropane-1-carboxamide] | 0.57 nM | 4.5 nM
CCn1c(-c2cc(-c3nc(C)n(C)n3)cnc2[C@H](C)OC)c2c3cc(ccc31)-c1csc(n1)C[C@H](NC(=O)[C@H]1C[C@@H]1C)C(=O)N1CCC[C@H](N1)C(=O)OCC(C)(C)C2 (atropisomer, axis not shown) [Compound 20, (1S,2S)-N-((6^3S,4S,Z)-1^2-(5-(4,5-dimethyl-4H-1,2,4-triazol-3-yl)-2-((S)-1-methoxyethyl)pyridin-3-yl)-1^1-ethyl-10,10-dimethyl-5,7-dioxo-6^1,6^2,6^3,6^4,6^5,6^6-hexahydro-1^1H-8-oxa-2(4,2)-thiazola-1(5,3)-indola-6(1,3)-pyridazinacycloundecaphane-4-yl)-2-methylcyclopropane-1-carboxamide] | 3.4 nM | 3 nM
CCn1c(-c2cc(-c3nc(C)no3)cnc2[C@H](C)OC)c2c3cc(ccc31)-c1csc(n1)C[C@H](NC(=O)[C@H]1C[C@@H]1C)C(=O)N1CCC[C@H](N1)C(=O)OCC(C)(C)C2 (atropisomer, axis not shown) [Compound 21, (1S,2S)-N-((6^3S,4S,Z)-1^1-ethyl-1^2-(2-((S)-1-methoxyethyl)-5-(3-methyl-1,2,4-oxadiazol-5-yl)pyridin-3-yl)-10,10-dimethyl-5,7-dioxo-6^1,6^2,6^3,6^4,6^5,6^6-hexahydro-1^1H-8-oxa-2(4,2)-thiazola-1(5,3)-indola-6(1,3)-pyridazinacycloundecaphane-4-yl)-2-methylcyclopropane-1-carboxamide] | 11 nM | 15 nM
